Measured values taken from the supplement of paper PMC4862054.

Experiments:
Settings in all cases: incubation time: 72 h
CAL-120 [1] = assay: normalised response (% of control), CellTiter-Glo; higher = more viable cells (100 = DMSO, 0 = benzethonium chloride kill control)
How it was run: (§1)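 For each plate, 0.1 % DMSO was set to 100 and a positive kill control to 0. Breast cancer cell lines (20 µl suspension) were seeded into 384-well plates already holding compound at 5 concentrations in 10-fold steps over a 10,000-fold range chosen per compound, and incubated for 72 h. CellTox Green fluorescence at 485/520 nm was read before CellTiter-Glo luminescence, which followed 10 min at room temperature. Each value is the normalised signal at one concentration.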

CAL-85-1 [2] = assay: as above
How it was run: as §1

MDA-MB-468 [3] = assay: as above
How it was run: as §1

CAL-148 [4] = assay: as above
How it was run: as §1

CAL-51 [5] = assay: as above
How it was run: as §1

HCC1599 [6] = assay: as above
How it was run: as §1

HCC1143 [7] = assay: as above
How it was run: as §1

HCC1937 [8] = assay: as above
How it was run: as §1

MCF-10A [9] = assay: as above
How it was run: as §1

SK-BR-3 [10] = assay: as above
How it was run: as §1

MDA-MB-231 [11] = assay: as above
How it was run: as §1

Hs578T [12] = assay: as above
How it was run: as §1

BT-474 [13] = assay: as above
How it was run: as §1

HDQ-P1 [14] = assay: as above
How it was run: as §1

DU-4475 [15] = assay: as above
How it was run: as §1

BT-549 [16] = assay: as above
How it was run: as §1

MDA-MB-436 [17] = assay: as above
How it was run: as §1

MDA-MB-453 [18] = assay: as above
How it was run: as §1

MFM-223 [19] = assay: as above
How it was run: as §1

CAL-120 [20] = assay: normalised response (% of control), CellTox Green; higher = less cell death (100 = DMSO, 0 = benzethonium chloride kill control)
How it was run: as §1

CAL-85-1 [21] = assay: as above
How it was run: as §1

MDA-MB-468 [22] = assay: as above
How it was run: as §1

CAL-148 [23] = assay: as above
How it was run: as §1

CAL-51 [24] = assay: as above
How it was run: as §1

HCC1599 [25] = assay: as above
How it was run: as §1

HCC1143 [26] = assay: as above
How it was run: as §1

HCC1937 [27] = assay: as above
How it was run: as §1

MCF-10A [28] = assay: as above
How it was run: as §1

MDA-MB-231 [29] = assay: as above
How it was run: as §1

Hs578T [30] = assay: as above
How it was run: as §1

BT-474 [31] = assay: as above
How it was run: as §1

HDQ-P1 [32] = assay: as above
How it was run: as §1

DU-4475 [33] = assay: as above
How it was run: as §1

BT-549 [34] = assay: as above
How it was run: as §1

MDA-MB-436 [35] = assay: as above
How it was run: as §1

MDA-MB-453 [36] = assay: as above
How it was run: as §1

MFM-223 [37] = assay: as above
How it was run: as §1

CAL-120 [38] = assay: normalised response (% of control), CellTiter-Glo; higher = more viable cells (100 = DMSO, 0 = benzethonium chloride kill control); remark: listed apart in the source
Protocol: (§2)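 DSRT, 72 h incubation, CellTox Green / CellTiter-Glo readout. Signal is normalised to DMSO and benzethonium chloride controls. Value is the normalised response at dose 3.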

CAL-85-1 [39] = assay: as above; remark: listed apart in the source
Protocol: as §2

CAL-148 [40] = assay: as above; remark: listed apart in the source
Protocol: as §2

HCC1599 [41] = assay: as above; remark: listed apart in the source
Protocol: as §2

HCC1143 [42] = assay: as above; remark: listed apart in the source
Protocol: as §2

HCC1937 [43] = assay: as above; remark: listed apart in the source
Protocol: as §2

MCF-10A [44] = assay: as above; remark: listed apart in the source
Protocol: as §2

SK-BR-3 [45] = assay: as above; remark: listed apart in the source
Protocol: as §2

MDA-MB-231 [46] = assay: as above; remark: listed apart in the source
Protocol: as §2

BT-474 [47] = assay: as above; remark: listed apart in the source
Protocol: as §2

HDQ-P1 [48] = assay: as above; remark: listed apart in the source
Protocol: as §2

DU-4475 [49] = assay: as above; remark: listed apart in the source
Protocol: as §2

BT-549 [50] = assay: as above; remark: listed apart in the source
Protocol: as §2

MDA-MB-436 [51] = assay: as above; remark: listed apart in the source
Protocol: as §2

MDA-MB-453 [52] = assay: as above; remark: listed apart in the source
Protocol: as §2

Cc1cccc(-c2nn3c(c2-c2ccnc4ccc(C(N)=O)cc24)CCC3)n1 [Galunisertib] (100 nM)
normalised response (CAL-120 [1]): 104% | normalised response (CAL-85-1 [2]): 104% | normalised response (MDA-MB-468 [3]): 107% | normalised response (CAL-148 [4]): 101% | normalised response (CAL-51 [5]): 88.5% | normalised response (HCC1599 [6]): 109% | normalised response (HCC1143 [7]): 109% | normalised response (HCC1937 [8]): 104% | normalised response (MCF-10A [9]): 109% | normalised response (SK-BR-3 [10]): 105% | normalised response (MDA-MB-231 [11]): 108% | normalised response (Hs578T [12]): 91.6% | normalised response (BT-474 [13]): 104% | normalised response (HDQ-P1 [14]): 101% | normalised response (DU-4475 [15]): 104% | normalised response (BT-549 [16]): 94.3% | normalised response (MDA-MB-436 [17]): 110% | normalised response (MDA-MB-453 [18]): 105% | normalised response (MFM-223 [19]): 107% | normalised response (CAL-120 [20]): 101% | normalised response (CAL-85-1 [21]): 102% | normalised response (MDA-MB-468 [22]): 170% | normalised response (CAL-148 [23]): 108% | normalised response (CAL-51 [24]): 112% | normalised response (HCC1599 [25]): 109% | normalised response (HCC1143 [26]): 112% | normalised response (HCC1937 [27]): 93.8% | normalised response (MCF-10A [28]): 59.8% | normalised response (MDA-MB-231 [29]): 120% | normalised response (Hs578T [30]): 87.6% | normalised response (BT-474 [31]): 102% | normalised response (HDQ-P1 [32]): 70.6% | normalised response (DU-4475 [33]): 107% | normalised response (BT-549 [34]): 121% | normalised response (MDA-MB-436 [35]): 105% | normalised response (MDA-MB-453 [36]): 114% | normalised response (MFM-223 [37]): 98.5%

CS(=O)(=O)N1CCN(Cc2cc3nc(-c4cccc5[nH]ncc45)nc(N4CCOCC4)c3s2)CC1 [Pictilisib] (100 nM)
normalised response (CAL-120 [38]): 89.6% | normalised response (CAL-85-1 [39]): 106% | normalised response (CAL-148 [40]): 98.4% | normalised response (HCC1599 [41]): 93.6% | normalised response (HCC1143 [42]): 91.7% | normalised response (HCC1937 [43]): 94.7% | normalised response (MCF-10A [44]): 84.8% | normalised response (SK-BR-3 [45]): 74.1% | normalised response (MDA-MB-231 [46]): 86.2% | normalised response (BT-474 [47]): 86.9% | normalised response (HDQ-P1 [48]): 82.4% | normalised response (DU-4475 [49]): 92% | normalised response (BT-549 [50]): 86.7% | normalised response (MDA-MB-436 [51]): 92% | normalised response (MDA-MB-453 [52]): 88.5% | normalised response (CAL-120 [20]): 102% | normalised response (CAL-85-1 [21]): 107% | normalised response (MDA-MB-468 [22]): 143% | normalised response (CAL-148 [23]): 92.1% | normalised response (CAL-51 [24]): 103% | normalised response (HCC1599 [25]): 108% | normalised response (HCC1143 [26]): 110% | normalised response (MCF-10A [28]): 106% | normalised response (MDA-MB-231 [29]): 92.3% | normalised response (Hs578T [30]): 109% | normalised response (BT-474 [31]): 98.8% | normalised response (HDQ-P1 [32]): 107% | normalised response (DU-4475 [33]): 101% | normalised response (BT-549 [34]): 101% | normalised response (MDA-MB-436 [35]): 107% | normalised response (MDA-MB-453 [36]): 104% | normalised response (MFM-223 [37]): 105%

O=C(NC[C@H](O)CO)c1ccncc1Nc1ccc(I)cc1F [Pimasertib] (1000 nM)
normalised response (CAL-120 [1]): 73.6% | normalised response (CAL-85-1 [2]): 61.9% | normalised response (MDA-MB-468 [3]): 87.4% | normalised response (CAL-148 [4]): 83.5% | normalised response (CAL-51 [5]): 73% | normalised response (HCC1599 [6]): 91.6% | normalised response (HCC1143 [7]): 84.2% | normalised response (HCC1937 [8]): 84.3% | normalised response (MCF-10A [9]): 31.2% | normalised response (SK-BR-3 [10]): 86.1% | normalised response (MDA-MB-231 [11]): 72.1% | normalised response (Hs578T [12]): 86.2% | normalised response (BT-474 [13]): 69.8% | normalised response (HDQ-P1 [14]): 62.1% | normalised response (DU-4475 [15]): 0.43% | normalised response (BT-549 [16]): 96.1% | normalised response (MDA-MB-436 [17]): 95.5% | normalised response (MDA-MB-453 [18]): 105% | normalised response (MFM-223 [19]): 94% | normalised response (CAL-120 [20]): 83.4% | normalised response (CAL-85-1 [21]): 67.4% | normalised response (MDA-MB-468 [22]): 150% | normalised response (CAL-148 [23]): 105% | normalised response (CAL-51 [24]): 93.7% | normalised response (HCC1599 [25]): 111% | normalised response (HCC1143 [26]): 89.5% | normalised response (HCC1937 [27]): 109% | normalised response (MCF-10A [28]): 106% | normalised response (MDA-MB-231 [29]): 63.2% | normalised response (Hs578T [30]): 103% | normalised response (BT-474 [31]): 78.8% | normalised response (HDQ-P1 [32]): 77.2% | normalised response (DU-4475 [33]): 62.6% | normalised response (BT-549 [34]): 142% | normalised response (MDA-MB-436 [35]): 56.7% | normalised response (MDA-MB-453 [36]): 107% | normalised response (MFM-223 [37]): 100%

Cn1cc(CNCC2CCN(c3ncc(C(=O)NO)cn3)CC2)c2ccccc21 [Quisinostat] (100 nM)
normalised response (CAL-120 [1]): 44.5% | normalised response (CAL-85-1 [2]): 29.5% | normalised response (MDA-MB-468 [3]): 34.5% | normalised response (CAL-148 [4]): 8.89% | normalised response (CAL-51 [5]): 40.5% | normalised response (HCC1599 [6]): 42.1% | normalised response (HCC1143 [7]): 25.4% | normalised response (HCC1937 [8]): 64.7% | normalised response (MCF-10A [9]): 51.6% | normalised response (SK-BR-3 [10]): 14.9% | normalised response (MDA-MB-231 [11]): 30% | normalised response (Hs578T [12]): 37.2% | normalised response (BT-474 [13]): 25.3% | normalised response (HDQ-P1 [14]): 58.4% | normalised response (DU-4475 [15]): 23.2% | normalised response (BT-549 [16]): 46.1% | normalised response (MDA-MB-436 [17]): 55.3% | normalised response (MDA-MB-453 [18]): 2.02% | normalised response (MFM-223 [19]): 52.5% | normalised response (CAL-120 [20]): 34.5% | normalised response (CAL-85-1 [21]): -5.42% | normalised response (MDA-MB-468 [22]): 43.3% | normalised response (CAL-148 [23]): 23.7% | normalised response (CAL-51 [24]): 58.5% | normalised response (HCC1599 [25]): 86.8% | normalised response (HCC1143 [26]): 86.2% | normalised response (HCC1937 [27]): 80% | normalised response (MCF-10A [28]): 97.8% | normalised response (MDA-MB-231 [29]): 29.6% | normalised response (Hs578T [30]): 38.8% | normalised response (BT-474 [31]): 45.6% | normalised response (HDQ-P1 [32]): -19.4% | normalised response (DU-4475 [33]): 82.1% | normalised response (BT-549 [34]): 92.3% | normalised response (MDA-MB-436 [35]): 87.5% | normalised response (MDA-MB-453 [36]): 89% | normalised response (MFM-223 [37]): 72.8%
